The values below are quoted from earlier work in patent US20240050950A1, “GRADIENT-BASED MICROFLUIDIC CIRCUIT, DEVICE, AND METHOD FOR PERFORMING AN ASSAY” (priority 2020, published 2024).

For the data set the following is noted: cited from earlier work.
The mark [1] stands for this setting: Table 1, antimicrobial agents/drugs.
[2] abbreviates: Table 3, antifungal drugs and other molecules.

Counter-ions that a name gives are not always drawn. Like-named read-outs stand apart in the source and are kept apart here. Numbered stars: 1 amine (or outer) side, 2 acyl side, 3 side chain; on linkers, the order of the positions; unused ones are H or OH. Bridge positions count the residues as written; N and C are the ends. Square brackets hold non-standard residues; d marks the D form. Peptide text beside a SMILES is read from it. I, II: the chains in the order shown. Actinocin(9to1) = Cc1c2oc3c(C)ccc(C(=O)[*:1])c3nc-2c(C(=O)[*:2])c(N)c1=O; Phe(ol) = N[C@H](CO)Cc1ccccc1; NMeV = CN[C@H](C(=O)O)C(C)C; Aib = CC(C)(N)C(=O)O; Sar = CNCC(=O)O

For the compound “4-Hydroxytamoxifen [4-Hydroxytamoxifen ((Z)-Afimoxifene)]”, the Molar volume under setting [1] is 354.6 ± 3.0 cm^3.
On to `OC[C@H]1NC[C@@H](O)[C@@H](O)[C@@H]1O` [1-Deoxymannojirimycin], for which the Molar volume under setting [1] was 112.0 ± 3.0 cm^3.
As for `c1ccc2[nH]c(-c3cscn3)nc2c1` [2-(4-Thiazolyl)benzimidazole], the Molar volume under setting [2] was 143.0 ± 3.0 cm^3.
With `C=CCc1ccc(O)c(-c2cc(CC=C)ccc2O)c1` [5,5′-Diallyl-2,2′-biphenyldiol], under setting [2], the Molar volume is 240.4 ± 3.0 cm^3.
Regarding `O=[N+]([O-])C1(Br)COCOC1` [5-Bromo-5-nitro-1,3-dioxane], under setting [2], the Molar volume was 115.3 ± 5.0 cm^3.
Turning to `Cc1c2oc3c(C)c(N)cc(C(=O)N[C@@H]4C(=O)N[C@H](C(C)C)C(=O)N5CCC[C@H]5C(=O)N(C)CC(=O)N(C)[C@@H](C(C)C)C(=O)O[C@@H]4C)c3nc-2c(C(=O)N[C@@H]2C(=O)N[C@H](C(C)C)C(=O)N3CCC[C@H]3C(=O)N(C)CC(=O)N(C)[C@@H](C(C)C)C(=O)O[C@@H]2C)c(N)c1=O` [7-Aminoactinomycin D (7-ADD), 7-Aminoactinomycin D], under setting [1], the Molar volume is reported as 877.3 ± 7.0 cm^3.
Regarding `CC(=O)OCC1=C(C(=O)O)N2C(=O)[C@@H](N)[C@H]2SC1` [7-Aminocephalosporanic acid (7-ACA), 7-Aminocephalosporanic acid], the Molar volume under setting [1] is on record as 170.0 ± 5.0 cm^3.
Turning to `CC1=C(C(=O)O)N2C(=O)[C@@H](N)[C@H]2SC1` [7-Aminodesacetoxycephalosporanic acid], the Molar volume under setting [1] is given as 134.0 ± 5.0 cm^3.
Consider `CC(=O)O[C@@]12CO[C@@H]1C[C@H](O)[C@@]1(C)C(=O)[C@H](O)C3=C(C)[C@@H](O)C[C@@](O)([C@@H](OC(=O)c4ccccc4)[C@H]21)C3(C)C` [10-Deacetylbaccatin III], for which the Molar volume under setting [1] is 385.5 ± 5.0 cm^3.
Take `C=CCNC1=C2C[C@@H](C)C[C@H](OC)[C@H](O)[C@@H](C)/C=C(\C)[C@H](OC(N)=O)[C@@H](OC)/C=C\C=C(/C)C(=O)NC(=CC1=O)C2=O` [17-(Allylamino)-17-demethoxygeldanamycin]: the Molar volume under setting [1] is 483.3 ± 5.0 cm^3.
In the case of `CC1(C)S[C@@H]2[C@H](N)C(=O)N2[C@H]1C(=O)O` [(+)-6-Aminopenicillanic acid (6-APA), (+)-6-Aminopenicillanic acid], under setting [1], the Molar volume was 142.0 ± 5.0 cm^3.
`CC[C@@]1(O)C(=O)OCc2c1cc1n(c2=O)Cc2cc3ccccc3nc2-1` [(S)-(+)-Camptothecin (Camptothecin), (S)-(+)-Camptothecin]: the Molar volume under setting [1] is reported as 230.2 ± 5.0 cm^3.
Regarding `CC(=O)O[C@H]1CC[C@@]2(C)C(=CC[C@@H]3[C@@H]2CC[C@]2(C)C(c4cccnc4)=CC[C@@H]32)C1` [Abiraterone acetate (Zytiga), Abiraterone acetate], the Molar volume (Table 2, anticancer drugs) was 343.0 ± 5.0 cm^3.
Take `Cc1c2oc3c(C)ccc(C(=O)N[C@@H]4C(=O)N[C@H](C(C)C)C(=O)N5CCC[C@H]5C(=O)N(C)CC(=O)N(C)[C@@H](C(C)C)C(=O)O[C@@H]4C)c3nc-2c(C(=O)N[C@@H]2C(=O)N[C@H](C(C)C)C(=O)N3CCC[C@H]3C(=O)N(C)CC(=O)N(C)[C@@H](C(C)C)C(=O)O[C@@H]2C)c(N)c1=O` [Actinomycin D] (I: T[dV]P[Sar][NMeV] / II: T[dV]P[Sar][NMeV]; ester I:1-I:C, II:1-II:C; linker I:N-II:N via Actinocin(9to1)): the Molar volume reads like this: under setting [1], 880.6 ± 7.0 cm^3; (Table 2, anticancer drugs) 880.6 ± 7.0 cm^3.
`CCCCC[C@H](CC(=O)NO)C(=O)N[C@H](C(=O)N1CCC[C@H]1CO)C(C)C` [Actinonin]: under setting [1], the Molar volume is given as 338.1 ± 3.0 cm^3.
For `Nc1ncnc2c1ncn2[C@@H]1O[C@H](CO)[C@@H](O)[C@@H]1O` [Adenine 9-β-D-arabinofuranoside], under setting [1], the Molar volume is listed as 128.1 ± 7.0 cm^3.
`CO[C@H]1C[C@@H]2CC[C@@H](C)[C@@](O)(O2)C(=O)C(=O)N2CCCC[C@H]2C(=O)O[C@H]([C@H](C)C[C@@H]2CC[C@@H](OCCO)[C@H](OC)C2)CC(=O)[C@H](C)/C=C(\C)[C@@H](O)[C@@H](OC)C(=O)[C@H](C)C[C@H](C)/C=C/C=C/C=C/1C` [Afinitor (Everolimus), Everolimus]: the Molar volume (Table 2, anticancer drugs) is given as 811.2 ± 5.0 cm^3.
In the case of `CC(=O)NC(C)(C)C(=O)N1CCC[C@H]1C(=O)NC(C)(C)C(=O)N[C@@H](C)C(=O)NC(C)(C)C(=O)N[C@@H](C)C(=O)N[C@@H](CCC(N)=O)C(=O)NC(C)(C)C(=O)N[C@H](C(=O)NC(C)(C)C(=O)NCC(=O)N[C@@H](CC(C)C)C(=O)NC(C)(C)C(=O)N1CCC[C@H]1C(=O)N[C@H](C(=O)NC(C)(C)C(=O)NC(C)(C)C(=O)N[C@@H](CCC(=O)O)C(=O)N[C@@H](CCC(N)=O)C(=O)N[C@H](CO)Cc1ccccc1)C(C)C)C(C)C` [Alamethicin] (Ac-[Aib]P[Aib]A[Aib]AQ[Aib]V[Aib]GL[Aib]PV[Aib][Aib]EQ[Phe(ol)]), the Molar volume under setting [1] was 1583.4 ± 3.0 cm^3.
For `CC(C)Cn1cnc2c(N)nc3ccccc3c21` [Aldara (Imiquimod), Imiquimod], under “Table 2, anticancer drugs”, the Molar volume is listed as 187.7 ± 7.0 cm^3.
Regarding `Nc1nc2[nH]cc(CCc3ccc(C(=O)N[C@@H](CCC(=O)O)C(=O)O)cc3)c2c(=O)[nH]1` [Alimta (Pemetrexed Disodium), Pemetrexed Disodium], for the setting “Table 2, anticancer drugs”, the Molar volume was 268.0 ± 7.0 cm^3.
With `COc1c(OCCCN2CCOCC2)ccc2c1N=C(NC(=O)c1cnc(N)nc1)N1CCN=C21` [Aliqopa (Copanlisib Hydrochloride), Copanlisib Hydrochloride], where the note is “Table 2, anticancer drugs”, the Molar volume is on record as 317.6 ± 7.0 cm^3.
Consider `O=C1c2cccc3c2[C@H](CCC3)CN1[C@@H]1CN2CCC1CC2` [Aloxi (Palonosetron Hydrochloride), Palonosetron Hydrochloride], for which the Molar volume (Table 2, anticancer drugs) is 238.6 ± 5.0 cm^3.
In the case of `CC(C)C[C@@H](N)[C@H](O)C(=O)N[C@H](C(=O)N[C@H](C(=O)N[C@@H](CC(=O)O)C(=O)O)C(C)C)C(C)C` [Amastatin], the Molar volume under setting [1] is 386.4 ± 3.0 cm^3.
On to `NCCCNCCSP(=O)(O)O` [Amifostine], for which, for the setting “Table 2, anticancer drugs”, the Molar volume was 156.6 ± 3.0 cm^3.
Regarding `NCC[C@H](O)C(=O)N[C@@H]1C[C@H](N)[C@@H](O[C@H]2O[C@H](CN)[C@@H](O)[C@H](O)[C@H]2O)[C@H](O)[C@H]1O[C@H]1O[C@H](CO)[C@@H](O)[C@H](N)[C@H]1O` [Amikacin], the Molar volume under setting [1] is 363.9 ± 5.0 cm^3.
As to `CC1(C)S[C@@H]2[C@H](NC(=O)[C@H](N)c3ccc(O)cc3)C(=O)N2[C@H]1C(=O)O` [Amoxicillin], the Molar volume under setting [1] is 236.2 ± 5.0 cm^3.
On to `C[C@@H]1[C@H](O)[C@@H](C)/C=C/C=C/C=C/C=C/C=C/C=C/C=C/[C@H](O[C@@H]2O[C@H](C)[C@@H](O)[C@H](N)[C@@H]2O)C[C@@H]2O[C@](O)(C[C@@H](O)C[C@@H](O)[C@H](O)CC[C@@H](O)C[C@@H](O)CC(=O)O[C@H]1C)C[C@H](O)[C@H]2C(=O)O` [Amphotericin B (Fungizone), Amphotericin B], for which, under setting [1], the Molar volume is 689.4 ± 5.0 cm^3.
Consider `CC(C)(C#N)c1cc(Cn2cncn2)cc(C(C)(C)C#N)c1` [Anastrozole], for which the Molar volume (Table 2, anticancer drugs) is 270.2 ± 7.0 cm^3.
Regarding `CC[C@H]1OC(=O)[C@H](C)[C@@H](O[C@H]2C[C@@](C)(OC)[C@@H](O)[C@H](C)O2)[C@H](C)[C@@H](O[C@@H]2O[C@H](C)C[C@H](N(C)C)[C@H]2O)[C@@]2(C)C[C@@H](C)[C@@]3(O[C@@]1(C)[C@H](O)[C@H]3C)O2` [Anhydroerythromycin A], the Molar volume under setting [1] is given as 590.7 ± 5.0 cm^3.
As to `COc1ccc(C[C@H]2NC[C@H](O)[C@H]2OC(C)=O)cc1` [Anisomycin (or, Flagecidin), Anisomycin], the Molar volume under setting [1] was 218.6 ± 5.0 cm^3.
For the compound `CNC(=O)c1ccc(N2C(=S)N(c3cnc(C#N)c(C(F)(F)F)c3)C(=O)C23CCC3)cc1F` [Apalutamide], the Molar volume (Table 2, anticancer drugs) was 300.1 ± 5.0 cm^3.
With `C[C@@]1(CO)[C@H](O)CC[C@@]2(C)[C@H]1CC[C@H]1C[C@@H]3C[C@@]12CC[C@]3(O)CO` [Aphidicolin], under setting [1], the Molar volume is given as 275.9 ± 5.0 cm^3.
For the compound `COC[C@@H](C[C@H]1O[C@@](O)([C@H](O)[C@@H]2C[C@H](OC)[C@@H](O)CC/C=C(C)/C=C/[C@@H](O[C@@H]3O[C@@H](C)[C@H](OC)[C@@H](O)[C@@H]3O)[C@H](C)/C=C(C)/C=C(C)/C=C(\C)C(=O)O2)[C@H](C)[C@@H](O)[C@H]1C)OC1C[C@](C)(O)[C@@H](O[C@H]2C[C@@H](OC)[C@H](O)[C@@H](C)O2)[C@H](C)O1` (some centres unmarked) [Apoptolidin (FU 40A), Apoptolidin], the Molar volume under setting [1] is given as 898.5 ± 5.0 cm^3.
On to `CN[C@@H]1[C@@H](O[C@H]2O[C@H](CO)[C@@H](N)[C@H](O)[C@H]2O)OC2C[C@@H](N)[C@@H](O[C@H]3[C@H](O)[C@@H](O)[C@H](N)C[C@@H]3N)OC2[C@@H]1O` (some centres unmarked) [Apramycin (Nebramycin II), Apramycin], for which the Molar volume under setting [1] is 344.4 ± 5.0 cm^3.
Regarding `C[C@@H](O[C@H]1OCCN(Cc2n[nH]c(=O)[nH]2)[C@H]1c1ccc(F)cc1)c1cc(C(F)(F)F)cc(C(F)(F)F)c1` [Aprepitant], for the setting “Table 2, anticancer drugs”, the Molar volume is given as 353.5 ± 7.0 cm^3.
On to `C=C1C[C@@H]2[C@H](CC[C@]3(C)C(=O)CC[C@@H]23)[C@@]2(C)C=CC(=O)C=C12` [Aromasin (Exemestane), Exemestane], for which, where the note is “Table 2, anticancer drugs”, the Molar volume is listed as 260.5 ± 5.0 cm^3.
`COc1nc(N)nc2c1ncn2[C@@H]1O[C@H](CO)[C@@H](O)[C@@H]1O` [Arranon (Nelarabine), Nelarabine]: the Molar volume (Table 2, anticancer drugs) is 149.8 ± 7.0 cm^3.
On to `CC(/C=C/[C@@]1(C)[C@H](C)CCC(=O)[C@@H]1C)=C\Cc1c(O)c(Cl)c(C)c(C=O)c1O` [Ascochlorin (Ilicicolin D, NSC 287492), Ascochlorin], for which the Molar volume under setting [1] was 337.6 ± 3.0 cm^3.
For the compound `CC[C@@H]1/C=C(\C)C[C@H](C)C[C@H](OC)[C@H]2O[C@@](O)(C(=O)C(=O)N3CCCC[C@H]3C(=O)O[C@H](/C(C)=C/[C@@H]3CC[C@@H](O)[C@H](OC)C3)[C@H](C)[C@@H](O)CC1=O)[C@H](C)C[C@@H]2OC` [Ascomycin (KD4185000), Ascomycin], the Molar volume under setting [1] is reported as 661.8 ± 5.0 cm^3.
In the case of `N=C(N)NCc1cccc([131I])c1` [Azedra], the Molar volume (Table 2, anticancer drugs) was 148.6 ± 7.0 cm^3.
